Laboratory results from ChEMBL document CHEMBL1201862, “PubChem BioAssay data set” (2004).
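Briefly, cells in 96-well plates were exposed to five compound concentrations for 48 h, and endpoints were estimated by linear interpolation. GI50 marks 50% less growth.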 Active and inactive are the calls of the source. Rule as the data show it: active = GI50 up to about 1.1 µM and inactive = higher.

Key:
Assay in all cases: NCI anticancer screen, dose series, 48 h
CCRF-CEM = system: CCRF-CEM
OVCAR-8 = system: OVCAR-8
RPMI-8226 = system: RPMI-8226
HT-29 = system: HT-29
K562 = system: K562
SF-295 = system: SF-295
RXF 393 = system: RXF 393
SK-OV-3 = system: SK-OV-3
786-0 = system: 786-0
LOX IMVI = system: LOX IMVI
HCT-116 = system: HCT-116
HL-60 = system: HL-60
IGROV-1 = system: IGROV-1
A549 = system: A549
SK-MEL-5 = system: SK-MEL-5
NCI-H226 = system: NCI-H226

Measured: GI50

Cc1cc(C)nc(NS(=O)(=O)c2ccc(Nc3c4ccc(Cl)cc4nc4c(C(=O)Nc5ccc(S(N)(=O)=O)cc5)cccc34)cc2)n1
inactive: CCRF-CEM 25.1 µM | OVCAR-8 16.9 µM | RPMI-8226 21.5 µM | HT-29 24 µM | K562 25.1 µM | SF-295 18.2 µM | RXF 393 13.3 µM | SK-OV-3 13.9 µM | 786-0 15.2 µM | LOX IMVI 16 µM | HCT-116 16.6 µM

CCn1cc(/C=C/C(C)c2cn(CC)c(=O)[nH]c2=O)c(=O)[nH]c1=O (centres undefined)
inactive: HL-60 > 100 µM | CCRF-CEM > 100 µM | OVCAR-8 > 100 µM | RPMI-8226 > 100 µM | HT-29 > 100 µM | K562 > 100 µM | SF-295 > 100 µM | RXF 393 > 100 µM | IGROV-1 > 100 µM | SK-OV-3 > 100 µM | 786-0 > 100 µM | LOX IMVI > 100 µM | A549 > 100 µM | SK-MEL-5 > 100 µM

O=C(NCCOCCO)c1ccc(O)cc1
inactive: HL-60 > 100 µM | CCRF-CEM > 100 µM | OVCAR-8 > 100 µM | RPMI-8226 > 100 µM | K562 > 100 µM | RXF 393 > 100 µM | IGROV-1 > 100 µM | SK-OV-3 > 100 µM | 786-0 > 100 µM | LOX IMVI > 100 µM | A549 > 100 µM | HCT-116 > 100 µM | SK-MEL-5 > 100 µM

CC1(C)CCC(Sc2ccccc2)O1 (centres undefined)
inactive: HL-60 > 100 µM | CCRF-CEM > 100 µM | OVCAR-8 > 100 µM | RPMI-8226 > 100 µM | K562 > 100 µM | SF-295 > 100 µM | RXF 393 > 100 µM | IGROV-1 > 100 µM | SK-OV-3 > 100 µM | 786-0 > 100 µM | LOX IMVI > 100 µM | A549 > 100 µM | HCT-116 > 100 µM | SK-MEL-5 > 100 µM

Cn1nc(-c2ccccc2)c2c(/C=C/c3ccc(F)cc3)onc2c1=O
inactive: HL-60 5.92 µM | CCRF-CEM > 100 µM | OVCAR-8 38.1 µM | RPMI-8226 > 100 µM | HT-29 29.3 µM | K562 17.3 µM | RXF 393 23.3 µM | IGROV-1 > 100 µM | SK-OV-3 50 µM | 786-0 11.1 µM | LOX IMVI 90.4 µM | A549 13.6 µM | HCT-116 9.59 µM | SK-MEL-5 > 100 µM

COc1ccc(C2CCc3cc4c(cc3/C2=N/OC(C)=O)OCO4)cc1OC (centres undefined)
inactive: NCI-H226 12.6 µM | CCRF-CEM 25.6 µM | OVCAR-8 34.4 µM | RPMI-8226 12.6 µM | HT-29 36.2 µM | K562 20.2 µM | SF-295 23 µM | RXF 393 14 µM | IGROV-1 24.3 µM | SK-OV-3 28.8 µM | 786-0 32.5 µM | LOX IMVI 15.9 µM | A549 18.3 µM | HCT-116 14.2 µM | SK-MEL-5 8.65 µM

Cc1cc(Cl)cc2c1NC(=O)C2=O.O=C(c1ccccc1)C(F)(F)F
inactive: NCI-H226 > 100 µM | CCRF-CEM 17.2 µM | OVCAR-8 55.5 µM | HT-29 78 µM | K562 32.4 µM | SF-295 56.2 µM | RXF 393 73.3 µM | IGROV-1 > 100 µM | SK-OV-3 > 100 µM | 786-0 70.1 µM | LOX IMVI 15.3 µM | A549 52.2 µM | HCT-116 59.8 µM | SK-MEL-5 41.7 µM

C=CCN(N=O)C(=O)ON1C(=O)CCC1=O
inactive: HL-60 > 100 µM | CCRF-CEM 85.9 µM | OVCAR-8 > 100 µM | RPMI-8226 > 100 µM | HT-29 > 100 µM | K562 > 100 µM | SF-295 > 100 µM | RXF 393 > 100 µM | IGROV-1 > 100 µM | SK-OV-3 > 100 µM | 786-0 > 100 µM | LOX IMVI > 100 µM | A549 > 100 µM | HCT-116 > 100 µM
